Laboratory results published in paper PMC11997890, “In Vivo and In Vitro Pharmacokinetic Studies of a Dual Topoisomerase I/II Inhibitor” (ACS Pharmacology & Translational Science, 2025).
pIC50: −log10 of the molar value.

Columns and labels:
[1] = In vitro biotransformation of P8-D6 with rat tissue fractions; format: in vitro ADME; conditions: 1 mM P8-D6, 150 min
Procedure: P8-D6 (1 mM) was incubated with postnuclear supernatant (PNS), microsomes, or S9 reaction mixture of various tissue samples (liver, kidney, lung, spleen, and colon) from different donor species (pigs, mice, rats, and humans) for 150 min (study preparation scheme supplied as Figure S5). The commercial human and rat enzymes were subjected to quality control by the supplier. Three phase I metabolites were identified. […] LC-MS and NMR spectroscopic data for the metabolites are given in Supporting Information. Based on the structural characteristics, the metabolites were named as follows: P8-DO (4), P8-D6 N-oxide (6), and P8-D6 mono (8). All metabolites were synthesized to confirm the postulated structure (chapter Synthesis of Metabolites). The extent of metabolism during in vitro incubation was highly dependent on the species (pig > mouse > rat > human) (Figure ).
For all phase I metabolism studies (except cell cultures), a 0.3 mL reaction mixture consisting of 1 mM substrate (P8-D6, P8-D6 mono, P8-D6 N-oxide), 1 mM NADPH as a cofactor, 0.67 mg/mL protein from homogenized tissue or subcellular fractions, respectively (except recombinant enzymes, where 0.5 mg/mL was used), and PBS buffer (pH 7.4) was used. All experiments were performed in biological triplicates. […]

CYP1A2 = target: T1, CYP1A2 (Homo sapiens, UniProt P05177); assay: In vitro CYP inhibition, marker substrate phenacetin; format: in vitro ADME
T1 construct: host or cells: human liver microsomes (one value) / recombinant CYP enzyme (other value)
T1 sequence (P05177 whole entry): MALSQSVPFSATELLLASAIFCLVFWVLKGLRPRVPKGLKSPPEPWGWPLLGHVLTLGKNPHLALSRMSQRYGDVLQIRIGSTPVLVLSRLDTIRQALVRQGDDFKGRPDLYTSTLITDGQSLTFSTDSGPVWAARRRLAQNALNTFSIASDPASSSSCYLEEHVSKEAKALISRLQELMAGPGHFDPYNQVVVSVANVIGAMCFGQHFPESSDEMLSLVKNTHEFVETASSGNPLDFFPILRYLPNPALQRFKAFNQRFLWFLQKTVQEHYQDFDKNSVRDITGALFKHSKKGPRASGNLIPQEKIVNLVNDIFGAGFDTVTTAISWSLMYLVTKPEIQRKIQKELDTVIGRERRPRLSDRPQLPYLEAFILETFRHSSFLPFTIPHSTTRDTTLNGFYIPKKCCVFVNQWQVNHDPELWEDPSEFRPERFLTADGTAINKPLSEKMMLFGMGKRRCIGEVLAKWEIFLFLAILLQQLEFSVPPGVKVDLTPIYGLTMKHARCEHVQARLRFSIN
Procedure: (§1) To assess metabolizing enzyme-mediated drug interactions, P8-D6 was incubated with human liver (HLM) or recombinant CYP enzymes and the respective marker substrate according to the FDA (with the exception of using amitriptyline instead of S-mephenytoin). −
(§2) However, as some conversions were catalyzed by several enzymes, the conversion rates in HLM increased (e.g., bupropion and diclofenac).
(§3) To examine a possible in vitro CYP inhibition, the following CYP enzymes and marker substrates were investigated according to the FDA: , phenacetin (CYP1A2), bupropion (CYP2B6), amodiaquine (CYP2C8), diclofenac (CYP2C9), amitriptyline (CYP2C19), dextromethorphan (CYP2D6), testosterone (CYP3A4), and nifedipine (CYP3A4). Incubation was performed in a 0.2 mL reaction mix consisting of PBS buffer (pH 7.4), 1 mM marker substrate, 1 mM NADPH, and either 0.5 mg/mL recombinant CYP enzyme or human liver microsomes. P8-D6 was added for a final concentration of 0.5 μM, 1 μM, 5 μM, 10 μM, 25 μM, 50 μM, 100 μM, 500 μM, 1000 μM, and (in some cases) 5000 μM. Sample preparation was performed according to in vitro biotransformation.

CYP2C8 = target: T2, CYP2C8 (Homo sapiens, UniProt P10632); assay: In vitro CYP inhibition, marker substrate amodiaquine; format: in vitro ADME
T2 construct: host or cells: human liver microsomes (one value) / recombinant CYP enzyme (other value)
T2 sequence (P10632 whole entry): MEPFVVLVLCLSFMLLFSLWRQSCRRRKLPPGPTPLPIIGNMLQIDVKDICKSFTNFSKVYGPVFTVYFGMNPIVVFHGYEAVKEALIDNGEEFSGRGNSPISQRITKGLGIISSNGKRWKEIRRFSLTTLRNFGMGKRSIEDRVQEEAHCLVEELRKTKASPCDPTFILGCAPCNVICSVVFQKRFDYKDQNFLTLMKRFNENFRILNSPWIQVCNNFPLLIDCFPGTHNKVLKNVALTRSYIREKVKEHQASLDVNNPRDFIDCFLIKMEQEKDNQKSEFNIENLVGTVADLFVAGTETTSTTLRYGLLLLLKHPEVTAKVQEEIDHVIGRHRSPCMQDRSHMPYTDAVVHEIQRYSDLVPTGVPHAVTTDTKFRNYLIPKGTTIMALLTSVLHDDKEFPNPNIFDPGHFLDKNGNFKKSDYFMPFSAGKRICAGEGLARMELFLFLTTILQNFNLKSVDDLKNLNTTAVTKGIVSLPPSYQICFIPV
Procedure: as §1, §2, §3

P-GP (ABCB1) = target: T3, P-GP (ABCB1) (Homo sapiens, UniProt P08183); assay: Transporter inhibition, calcein-AM accumulation in MDCK cells (P-GP overexpression); format: cell-based; conditions: intracellular accumulation of calcein-AM
T3 construct: expressed in transfected cells; host or cells: MDCK (Madin Darby canine kidney)
T3 sequence (P08183 whole entry, species assumed): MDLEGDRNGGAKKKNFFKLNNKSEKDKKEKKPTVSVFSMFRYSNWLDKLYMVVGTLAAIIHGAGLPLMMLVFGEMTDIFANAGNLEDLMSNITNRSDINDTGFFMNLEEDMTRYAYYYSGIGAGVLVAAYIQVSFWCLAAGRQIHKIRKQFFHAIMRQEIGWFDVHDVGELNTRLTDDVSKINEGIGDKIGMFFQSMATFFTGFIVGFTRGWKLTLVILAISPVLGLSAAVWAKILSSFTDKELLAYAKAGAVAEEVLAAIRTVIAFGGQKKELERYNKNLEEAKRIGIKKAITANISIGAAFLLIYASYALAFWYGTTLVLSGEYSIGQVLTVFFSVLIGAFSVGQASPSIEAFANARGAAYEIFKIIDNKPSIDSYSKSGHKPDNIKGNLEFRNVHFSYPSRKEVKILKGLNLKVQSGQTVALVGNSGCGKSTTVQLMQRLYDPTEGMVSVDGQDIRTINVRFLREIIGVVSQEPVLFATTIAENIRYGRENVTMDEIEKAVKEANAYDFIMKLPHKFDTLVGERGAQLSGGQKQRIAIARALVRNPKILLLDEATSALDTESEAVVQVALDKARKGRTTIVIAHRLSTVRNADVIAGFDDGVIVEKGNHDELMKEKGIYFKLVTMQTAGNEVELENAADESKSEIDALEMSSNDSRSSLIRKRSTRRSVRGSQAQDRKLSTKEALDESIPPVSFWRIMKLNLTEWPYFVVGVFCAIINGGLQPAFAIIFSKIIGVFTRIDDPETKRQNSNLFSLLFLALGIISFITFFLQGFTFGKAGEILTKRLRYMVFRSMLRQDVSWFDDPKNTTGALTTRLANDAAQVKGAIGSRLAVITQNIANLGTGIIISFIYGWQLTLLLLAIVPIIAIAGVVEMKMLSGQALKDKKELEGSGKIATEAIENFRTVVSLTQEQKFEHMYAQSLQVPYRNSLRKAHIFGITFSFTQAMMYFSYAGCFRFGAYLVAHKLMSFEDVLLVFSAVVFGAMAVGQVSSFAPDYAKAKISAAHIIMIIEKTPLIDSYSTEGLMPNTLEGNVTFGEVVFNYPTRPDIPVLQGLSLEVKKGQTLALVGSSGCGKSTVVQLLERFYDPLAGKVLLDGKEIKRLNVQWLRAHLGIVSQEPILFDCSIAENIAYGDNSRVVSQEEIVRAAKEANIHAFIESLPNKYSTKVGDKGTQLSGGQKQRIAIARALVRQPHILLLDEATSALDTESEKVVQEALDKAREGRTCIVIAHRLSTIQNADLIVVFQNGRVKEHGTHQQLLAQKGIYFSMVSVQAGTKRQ
Procedure: The inhibitory characteristics of P8-D6 on the classic efflux transporters P-GP and BCRP (ABCG2) were evaluated (Figure ).
A potential interaction of P8-D6 with the export protein P-GP (ABCB1) was evaluated in MDCK (P-GP overexpression) and MDCKII (BCRP overexpression) cells. P-GP interaction was determined by the measurement of calcein accumulation within the cells according to Bauer et al. Calcein-acetoxymethylester (calcein-AM) is a nonfluorescent, lipophilic and therefore highly cell-permeable ester. Once inside the cell, the ester bonds are rapidly cleaved by nonspecific esterases, generating highly fluorescent calcein, which is trapped inside the cell because of its hydrophilic nature. Because calcein-AM is a substrate for P-GP, inhibition of the transporter decreases efflux, which results in a higher intracellular fluorescence signal. […] Calcein-AM (MoBiTec, Göttingen, FRG) was added to a final concentration of 1 μM and incubated for 30 min at 37 °C. Afterward, the cells were immediately washed 3 times with ice-cold Krebs–Ringer buffer and lysed with 1% Triton X-100. […] Each determination was repeated 3 times in 2 experiments to ensure reproducibility. All fluorescence values were corrected by subtracting the background fluorescence.

[2] = Plasma protein binding by ultrafiltration; format: in vitro ADME; parameters: dose or concentration left out as unconfirmed; conditions: human, rat, human and rat plasma, 37 °C
Procedure: To examine the effect of the P8-D6 plasma protein binding on the in vivo bioavailability, human and rat plasma was spiked in vitro and incubated with P8-D6. By using ultrafiltration to separate free P8-D6 from the protein-bound fraction, a plasma protein binding of 99% (Figure A) was estimated. However, neither human α-1-microglobulin (3.06%) nor human serum albumin (0.91%) is responsible for binding. According to initial findings, γ-globulins (94.59%), human transferrin (90.43%), LDL (87.99%), human α2-HS glycoprotein (85.29%), and human fibrinogen (78.89%) lead to binding of P8-D6.
To examine the extent of plasma protein binding, 150 μL of blank samples of human plasma […] and rat plasma […], human albumin (1 mM, #A1653, Merck KGaA, Darmstadt); human α1-acid glycoprotein (1 mM; #G9885, Merck KGaA, Darmstadt); human α2-HS-glycoprotein (0.1 mM; #G0516, Merck KGaA, Darmstadt); human transferrin (0.2 mM; #T8158, Merck KGaA, Darmstadt); human fibrinogen (0.2 mM; #F3879, Merck KGaA, Darmstadt); LDL (0.2 mM; […]); and human γ-globulin (1 mM; #G4386, Merck KGaA, Darmstadt) were spiked with P8-D6 in the same final concentration as the protein and incubated in a shaking water bath at 37 °C for 120 min. Afterward, the unbound fraction of P8-D6 was separated by ultrafiltration (Vivaspin 500 10 000 MWCO filter). The sample preparation was performed according to plasma samples. […]

Lipophilicity = format: physicochemical

Structure (SMILES): COc1cc(-c2cc3ccncc3c3nc(OCC[N+](C)(C)[O-])c4cnccc4c23)cc(OC)c1OC [P8-D6 N-oxide]
- formation of metabolite from P8-D6 ([1]; rat liver microsomes): 1.91%
- formation of metabolite from P8-D6 ([1]; rat lung PNS): 1.37%

Structure (SMILES): COc1cc(-c2cc3ccncc3c3nc(OCCN(C)C)c4cnccc4c23)cc(OC)c1OC [P8-D6, 6-(N,N-dimethyl-2-aminoethoxy)-11-(3,4,5-trimethoxyphenyl)-pyrido[3,4-c][1,9]-phenanthroline]
- pIC50 (CYP1A2; HLM): 3.04
- pIC50 (CYP1A2; recombinant CYP isoenzyme): 3.30
- pIC50 (CYP2C8; HLM): 3.61
- pIC50 (CYP2C8; recombinant CYP isoenzyme): 3.55
- pIC50 (P-GP (ABCB1)): 4.69
- fraction unbound at 120 min [2]: 0.01
- logP (Lipophilicity): 2.9
- logD (Lipophilicity; pH 7.4, read-out: log D7.4): 3.7
